Laboratory results reported in the supplement of paper PMC10307832.

What was measured:
Assay in all cases: relative viability (nuclei count vs DMSO), 5 days (fraction); higher = more cells survive
201T = system: 201T
Procedure, shortened: (§1)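 Cells from lung cancer lines were seeded into 1536-well plates and, one day later, dosed by pin tool. Treatments were either a single drug or a fixed dose of an anchor drug with five library-drug doses (not always all listed) in √10 steps. After 5 days, nuclei were stained in a one-step fixation (final 0.05% Triton X-100, 1% formaldehyde, 1 ug/ml Hoechst) and counted on 4× images, and relative viability is the treated-to-vehicle nuclei ratio, as the median of duplicate plates.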

BEN = system: BEN
Procedure, shortened: as §1

CAL-12T = system: CAL-12T
Procedure, shortened: as §1

HCC-827 = system: HCC-827
Procedure, shortened: as §1

LCLC-97TM1 = system: LCLC-97TM1
Procedure, shortened: as §1

LXF-289 = system: LXF-289
Procedure, shortened: as §1

NCI-H1395 = system: NCI-H1395
Procedure, shortened: as §1

NCI-H1437 = system: NCI-H1437
Procedure, shortened: as §1

NCI-H1650 = system: NCI-H1650
Procedure, shortened: as §1

NCI-H1792 = system: NCI-H1792
Procedure, shortened: as §1

NCI-H1793 = system: NCI-H1793
Procedure, shortened: as §1

NCI-H1944 = system: NCI-H1944
Procedure, shortened: as §1

NCI-H2087 = system: NCI-H2087
Procedure, shortened: as §1

NCI-H2228 = system: NCI-H2228
Procedure, shortened: as §1

NCI-H2405 = system: NCI-H2405
Procedure, shortened: as §1

NCI-H3122 = system: NCI-H3122
Procedure, shortened: as §1

NCI-H322M = system: NCI-H322M
Procedure, shortened: as §1

NCI-H647 = system: NCI-H647
Procedure, shortened: as §1

NCI-H727 = system: NCI-H727
Procedure, shortened: as §1

RERF-LC-KJ = system: RERF-LC-KJ
Procedure, shortened: as §1

SK-LU-1 = system: SK-LU-1
Procedure, shortened: as §1

Which results are given for `Nc1ccn([C@@H]2O[C@H](CO)[C@@H](O)[C@@H]2O)c(=O)n1` [Cytarabine] + CS(=O)(=O)CCNCc1ccc(-c2ccc3ncnc(Nc4ccc(OCc5cccc(F)c5)c(Cl)c4)c3c2)o1 [Lapatinib] (partner 2 µM)?
relative viability (201T; first compound 0.005 µM): 1.08; relative viability (201T; first compound 0.01581 µM): 0.997; relative viability (201T; first compound 0.05 µM): 1.04; relative viability (201T; first compound 0.1581 µM): 0.889; relative viability (201T; first compound 0.5 µM): 0.919; relative viability (BEN; first compound 0.005 µM): 0.606; relative viability (BEN; first compound 0.01581 µM): 0.549; relative viability (BEN; first compound 0.05 µM): 0.414; relative viability (BEN; first compound 0.1581 µM): 0.333; relative viability (BEN; first compound 0.5 µM): 0.256; relative viability (CAL-12T; first compound 0.005 µM): 0.848; relative viability (CAL-12T; first compound 0.01581 µM): 0.629; relative viability (CAL-12T; first compound 0.05 µM): 0.542; relative viability (CAL-12T; first compound 0.1581 µM): 0.388; relative viability (CAL-12T; first compound 0.5 µM): 0.269; relative viability (HCC-827; first compound 0.005 µM): 0.192; relative viability (HCC-827; first compound 0.01581 µM): 0.16; relative viability (HCC-827; first compound 0.05 µM): 0.141; relative viability (HCC-827; first compound 0.1581 µM): 0.136; relative viability (HCC-827; first compound 0.5 µM): 0.125; relative viability (LCLC-97TM1; first compound 0.005 µM): 1.06; relative viability (LCLC-97TM1; first compound 0.01581 µM): 0.495; relative viability (LCLC-97TM1; first compound 0.05 µM): 0.163; relative viability (LCLC-97TM1; first compound 0.1581 µM): 0.161; relative viability (LCLC-97TM1; first compound 0.5 µM): 0.0949; relative viability (LXF-289; first compound 0.005 µM): 0.806; relative viability (LXF-289; first compound 0.01581 µM): 0.851; relative viability (LXF-289; first compound 0.05 µM): 0.809; relative viability (LXF-289; first compound 0.1581 µM): 0.429; relative viability (LXF-289; first compound 0.5 µM): 0.339; relative viability (NCI-H1395; first compound 0.005 µM): 0.935; relative viability (NCI-H1395; first compound 0.01581 µM): 0.749; relative viability (NCI-H1395; first compound 0.05 µM): 0.581; relative viability (NCI-H1395; first compound 0.1581 µM): 0.461; relative viability (NCI-H1395; first compound 0.5 µM): 0.355; relative viability (NCI-H1437; first compound 0.005 µM): 0.548; relative viability (NCI-H1437; first compound 0.01581 µM): 0.453; relative viability (NCI-H1437; first compound 0.05 µM): 0.378; relative viability (NCI-H1437; first compound 0.1581 µM): 0.177; relative viability (NCI-H1437; first compound 0.5 µM): 0.147; relative viability (NCI-H1650; first compound 0.005 µM): 0.807; relative viability (NCI-H1650; first compound 0.01581 µM): 0.604; relative viability (NCI-H1650; first compound 0.05 µM): 0.317; relative viability (NCI-H1650; first compound 0.1581 µM): 0.247; relative viability (NCI-H1650; first compound 0.5 µM): 0.155; relative viability (NCI-H1792; first compound 0.005 µM): 0.878; relative viability (NCI-H1792; first compound 0.01581 µM): 0.874; relative viability (NCI-H1792; first compound 0.05 µM): 0.366; relative viability (NCI-H1792; first compound 0.1581 µM): 0.548; relative viability (NCI-H1792; first compound 0.5 µM): 0.47; relative viability (NCI-H1793; first compound 0.005 µM): 0.846; relative viability (NCI-H1793; first compound 0.01581 µM): 0.478; relative viability (NCI-H1793; first compound 0.05 µM): 0.656; relative viability (NCI-H1793; first compound 0.1581 µM): 0.451; relative viability (NCI-H1793; first compound 0.5 µM): 0.338; relative viability (NCI-H1944; first compound 0.005 µM): 0.603; relative viability (NCI-H1944; first compound 0.01581 µM): 0.336; relative viability (NCI-H1944; first compound 0.05 µM): 0.318; relative viability (NCI-H1944; first compound 0.1581 µM): 0.177; relative viability (NCI-H1944; first compound 0.5 µM): 0.153; relative viability (NCI-H2087; first compound 0.005 µM): 1.04; relative viability (NCI-H2087; first compound 0.01581 µM): 0.967; relative viability (NCI-H2087; first compound 0.05 µM): 0.894; relative viability (NCI-H2087; first compound 0.1581 µM): 0.678; relative viability (NCI-H2087; first compound 0.5 µM): 0.402; relative viability (NCI-H2228; first compound 0.005 µM): 0.632; relative viability (NCI-H2228; first compound 0.01581 µM): 0.562; relative viability (NCI-H2228; first compound 0.05 µM): 0.315; relative viability (NCI-H2228; first compound 0.1581 µM): 0.183; relative viability (NCI-H2228; first compound 0.5 µM): 0.136; relative viability (NCI-H2405; first compound 0.005 µM): 0.937; relative viability (NCI-H2405; first compound 0.01581 µM): 0.698; relative viability (NCI-H2405; first compound 0.05 µM): 0.637; relative viability (NCI-H2405; first compound 0.1581 µM): 0.483; relative viability (NCI-H2405; first compound 0.5 µM): 0.294; relative viability (NCI-H3122; first compound 0.005 µM): 1.12; relative viability (NCI-H3122; first compound 0.01581 µM): 0.912; relative viability (NCI-H3122; first compound 0.05 µM): 0.91; relative viability (NCI-H3122; first compound 0.1581 µM): 0.676; relative viability (NCI-H3122; first compound 0.5 µM): 0.551; relative viability (NCI-H322M; first compound 0.005 µM): 0.585; relative viability (NCI-H322M; first compound 0.01581 µM): 0.609; relative viability (NCI-H322M; first compound 0.05 µM): 0.459; relative viability (NCI-H322M; first compound 0.1581 µM): 0.354; relative viability (NCI-H322M; first compound 0.5 µM): 0.348; relative viability (NCI-H647; first compound 0.005 µM): 0.596; relative viability (NCI-H647; first compound 0.01581 µM): 0.411; relative viability (NCI-H647; first compound 0.05 µM): 0.27; relative viability (NCI-H647; first compound 0.1581 µM): 0.128; relative viability (NCI-H647; first compound 0.5 µM): 0.0883; relative viability (NCI-H727; first compound 0.005 µM): 0.766; relative viability (NCI-H727; first compound 0.01581 µM): 0.602; relative viability (NCI-H727; first compound 0.05 µM): 0.606; relative viability (NCI-H727; first compound 0.1581 µM): 0.339; relative viability (NCI-H727; first compound 0.5 µM): 0.28; relative viability (RERF-LC-KJ; first compound 0.005 µM): 0.885; relative viability (RERF-LC-KJ; first compound 0.01581 µM): 0.751; relative viability (RERF-LC-KJ; first compound 0.05 µM): 0.892; relative viability (RERF-LC-KJ; first compound 0.1581 µM): 0.569; relative viability (RERF-LC-KJ; first compound 0.5 µM): 0.47; relative viability (SK-LU-1; first compound 0.005 µM): 0.659; relative viability (SK-LU-1; first compound 0.01581 µM): 0.744; relative viability (SK-LU-1; first compound 0.05 µM): 0.697; relative viability (SK-LU-1; first compound 0.1581 µM): 0.345; relative viability (SK-LU-1; first compound 0.5 µM): 0.467
